In brackets after ≈: the same amount, converted by molar mass.
Experiments:
Penicillium chrysogenum [1] = assay: Antifungal activity against Penicillium notatum after 48 hrs by broth dilution method; type: functional
Bacillus subtilis [2] = assay: Antimicrobial activity against Bacillus subtilis MTCC 441 assessed as zone of inhibition at 5 mg/ml after 24 hrs by agar well diffusion method; type: functional; conditions: MTCC 441, 24 h, read-out: IZ
Klebsiella pneumoniae [3] = assay: Antimicrobial activity against Klebsiella pneumoniae MTCC 3384 assessed as zone of inhibition at 5 mg/ml after 24 hrs by agar well diffusion method; type: functional; conditions: MTCC 3384, 24 h, read-out: IZ
Candida albicans [4] = assay: Antifungal activity against Candida albicans MTCC 461 after 48 hrs by broth dilution method; type: functional; conditions: MTCC 461, 48 h
Klebsiella pneumoniae [5] = assay: Antimicrobial activity against Klebsiella pneumoniae MTCC 3384 after 24 hrs by broth dilution method; type: functional; conditions: MTCC 3384, 24 h
Escherichia coli [6] = assay: Antimicrobial activity against Escherichia coli MTCC 4351 assessed as zone of inhibition at 5 mg/ml after 24 hrs by agar well diffusion method; type: functional; conditions: MTCC 4351, 24 h, read-out: IZ
Bacillus subtilis [7] = assay: Antimicrobial activity against Bacillus subtilis MTCC 441 after 24 hrs by broth dilution method; type: functional; conditions: MTCC 441, 24 h
Escherichia coli [8] = assay: Antimicrobial activity against Escherichia coli MTCC 4351 after 24 hrs by broth dilution method; type: functional; conditions: MTCC 4351, 24 h
Staphylococcus aureus [9] = assay: Antimicrobial activity against Staphylococcus aureus MTCC 3160 after 24 hrs by broth dilution method; type: functional; conditions: MTCC 3160, 24 h
MDA-MB-231 [10] = assay: Cytotoxicity against human MDA-MB-231 cells assessed as cell death at 5 ug/ml after 48 hrs by MTT assay; type: cell-based; conditions: mda-mb-231, 48 h
Rattus norvegicus [11] = assay: Antiinflammatory activity in rat assessed as inhibition of carrageenan-induced paw edema administered 30 mins prior to carrageenan challenge measured after 3 hrs relative to control; type: functional
Aspergillus niger [12] = assay: Antifungal activity against Aspergillus niger MTCC 282 after 48 hrs by broth dilution method; type: functional; conditions: MTCC 282, 48 h
MDA-MB-231 [13] = assay: Cytotoxicity against human MDA-MB-231 cells assessed as cell death at 10 ug/ml after 48 hrs by MTT assay; type: cell-based; conditions: mda-mb-231, 48 h
Candida albicans [14] = assay: Antifungal activity against Candida albicans MTCC 461 assessed as zone of inhibition at 5 mg/ml after 24 hrs by agar well diffusion method; type: functional; conditions: MTCC 461, 24 h, read-out: IZ
Staphylococcus aureus [15] = assay: Antimicrobial activity against Staphylococcus aureus MTCC 3160 assessed as zone of inhibition at 5 mg/ml after 24 hrs by agar well diffusion method; type: functional; conditions: MTCC 3160, 24 h, read-out: IZ
Rattus norvegicus [16] = assay: Antiinflammatory activity in rat assessed as inhibition of carrageenan-induced paw edema administered 30 mins prior to carrageenan challenge measured after 1 hr relative to control; type: functional
MDA-MB-231 [17] = assay: Cytotoxicity against human MDA-MB-231 cells assessed as cell death at 1 ug/ml after 48 hrs by MTT assay; type: cell-based; conditions: mda-mb-231, 48 h
Rattus norvegicus [18] = assay: Antiinflammatory activity in rat assessed as inhibition of carrageenan-induced paw edema administered 30 mins prior to carrageenan challenge measured after 2 hrs relative to control; type: functional
Candida tropicalis [19] = assay: Antifungal activity against Candida tropicalis MTCC 183 assessed as zone of inhibition at 5 mg/ml after 24 hrs by agar well diffusion method; type: functional; conditions: MTCC 183, 24 h, read-out: IZ
MDA-MB-231 [20] = assay: Cytotoxicity against human MDA-MB-231 cells assessed as cell death at 2.5 ug/ml after 48 hrs by MTT assay; type: cell-based; conditions: mda-mb-231, 48 h
Penicillium chrysogenum [21] = assay: Antifungal activity against Penicillium notatum assessed as zone of inhibition at 5 mg/ml after 24 hrs by agar well diffusion method; type: functional; conditions: read-out: IZ
Candida tropicalis [22] = assay: Antifungal activity against Candida tropicalis MTCC 183 after 48 hrs by broth dilution method; type: functional; conditions: MTCC 183, 48 h
Aspergillus niger [23] = assay: Antifungal activity against Aspergillus niger MTCC 282 assessed as zone of inhibition at 5 mg/ml after 24 hrs by agar well diffusion method; type: functional; conditions: MTCC 282, 24 h, read-out: IZ

Row | MIC (Penicillium chrysogenum [1]) | MIC (Candida albicans [4]) | MIC (Klebsiella pneumoniae [5]) | MIC (Bacillus subtilis [7]) | MIC (Escherichia coli [8]) | MIC (Staphylococcus aureus [9]) | MIC (Aspergillus niger [12]) | Structure (SMILES) | zone of inhibition at 5000 µg/mL (Bacillus subtilis [2]) | zone of inhibition at 5000 µg/mL (Klebsiella pneumoniae [3]) | zone of inhibition at 5000 µg/mL (Escherichia coli [6]) | Activity (MDA-MB-231 [10]) | inhibition (INH) (Rattus norvegicus [11]) | Activity (MDA-MB-231 [13]) | zone of inhibition at 5000 µg/mL (Candida albicans [14]) | zone of inhibition at 5000 µg/mL (Staphylococcus aureus [15]) | inhibition (INH) (Rattus norvegicus [16]) | Activity (MDA-MB-231 [17]) | inhibition (INH) (Rattus norvegicus [18]) | zone of inhibition at 5000 µg/mL (Candida tropicalis [19]) | Activity (MDA-MB-231 [20]) | further results
1 | 12.5 µg/mL (≈ 25.7 µM) | 12.5 µg/mL (≈ 25.7 µM) | 25 µg/mL (≈ 51.5 µM) | 25 µg/mL (≈ 51.5 µM) | 12.5 µg/mL (≈ 25.7 µM) | 25 µg/mL (≈ 51.5 µM) | 6.25 µg/mL (≈ 12.9 µM) | CCCn1c(-c2ccc(Cl)cc2Cl)nc2cc(C(=O)N/N=C/c3ccccc3Cl)ccc21 | 16 mm | 17 mm | 18 mm | 1.61% | 71.97% | 2.78% | 17 mm | 15 mm | 65.55% | -2.05% | 70.62% | 18 mm | -0.44% | zone of inhibition at 5000 µg/mL (Penicillium chrysogenum [21]): 15 mm; MIC (Candida tropicalis [22]): 6.25 µg/mL (≈ 12.9 µM); zone of inhibition at 5000 µg/mL (Aspergillus niger [23]): 21 mm
2 | 6.25 µg/mL (≈ 11.4 µM) | 3.12 µg/mL (≈ 5.71 µM) | 6.25 µg/mL (≈ 11.4 µM) | 3.12 µg/mL (≈ 5.71 µM) | 3.12 µg/mL (≈ 5.71 µM) | 3.12 µg/mL (≈ 5.71 µM) | 3.12 µg/mL (≈ 5.71 µM) | CCCn1c(-c2ccc(Cl)cc2Cl)nc2cc(C(=O)N/N=C/c3cc(Br)ccc3O)ccc21 | 22 mm | 20 mm | 22 mm | 0.07% | 45.98% | 4.46% | 21 mm | 22 mm | 44.81% | -6.58% | 47.41% | 18 mm | -6.21% | zone of inhibition at 5000 µg/mL (Penicillium chrysogenum [21]): 18 mm; MIC (Candida tropicalis [22]): 6.25 µg/mL (≈ 11.4 µM); zone of inhibition at 5000 µg/mL (Aspergillus niger [23]): 22 mm
3 | 25 µg/mL (≈ 47.1 µM) | 12.5 µg/mL (≈ 23.6 µM) | 25 µg/mL (≈ 47.1 µM) | 50 µg/mL (≈ 94.3 µM) | 12.5 µg/mL (≈ 23.6 µM) | 6.25 µg/mL (≈ 11.8 µM) | 3.12 µg/mL (≈ 5.88 µM) | CCCn1c(-c2ccc(Cl)cc2Cl)nc2cc(C(=O)N/N=C/c3cccc(Br)c3)ccc21 | 12 mm | 17 mm | 18 mm | -2.12% | 72.11% | 7.46% | 16 mm | 18 mm | 65.18% | -12.5% | 58.04% | 16 mm | -1.17% | zone of inhibition at 5000 µg/mL (Penicillium chrysogenum [21]): 15 mm; MIC (Candida tropicalis [22]): 12.5 µg/mL (≈ 23.6 µM); zone of inhibition at 5000 µg/mL (Aspergillus niger [23]): 22 mm

Reference: ChEMBL document CHEMBL3399986, “Rapid 'one-pot' synthesis of a novel benzimidazole-5-carboxylate and its hydrazone derivatives as potential anti-inflammatory and antimicrobial agents” (Bioorg Med Chem Lett, 2015)
